Assay results published in ChEMBL document CHEMBL1201862, “PubChem BioAssay data set” (2004).
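Each compound was tested at five concentrations against cells in 96-well plates for 48 hours. GI50 is the concentration that inhibits growth by half.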 Activity calls are given as the source filed them. No stated cut-off is given here; in the data, active = GI50 up to about 1.1 µM and inactive = higher. Where a SMILES comes first, the peptide text is derived from it. The star is where a group is joined. Cbz = O=C(OCc1ccccc1)*; OBn = c1ccc(CO*)cc1

Experiments:
Test in all cases: NCI anticancer screen, dose series, 48 h
EKVX = test system: EKVX
NCI-H226 = test system: NCI-H226
SK-OV-3 = test system: SK-OV-3
SR = test system: SR
CAKI-1 = test system: CAKI-1
NCI-H460 = test system: NCI-H460
LOX IMVI = test system: LOX IMVI
HCT-15 = test system: HCT-15
786-0 = test system: 786-0
U-251 = test system: U-251
SW-620 = test system: SW-620
MOLT-4 = test system: MOLT-4
DU-145 = test system: DU-145
MCF7 = test system: MCF7
HOP-92 = test system: HOP-92
IGROV-1 = test system: IGROV-1
MDA-N = test system: MDA-N
UO-31 = test system: UO-31
SF-539 = test system: SF-539
T47D = test system: T47D

| SMILES | GI50 (EKVX) | GI50 (NCI-H226) | GI50 (SK-OV-3) | GI50 (SR) | GI50 (CAKI-1) | GI50 (NCI-H460) | GI50 (LOX IMVI) | GI50 (HCT-15) [µM] | GI50 (786-0) | GI50 (U-251) | GI50 (SW-620) | GI50 (MOLT-4) | GI50 (DU-145) | GI50 (MCF7) | GI50 (HOP-92) | GI50 (IGROV-1) | GI50 (MDA-N) | GI50 (UO-31) | GI50 (SF-539) | GI50 (T47D) |
| --- | --- | --- | --- | --- | --- | --- | --- | --- | --- | --- | --- | --- | --- | --- | --- | --- | --- | --- | --- | --- |
| S=C(/N=c1/sc(Nc2ccccc2)nc2sc3c(c12)CCCC3)Nc1ccccc1 | > 62.5 µM (inactive) | > 62.5 µM (inactive) | > 62.5 µM (inactive) | > 62.5 µM (inactive) | > 62.5 µM (inactive) | > 62.5 µM (inactive) | > 62.5 µM (inactive) | > 62.5 | > 62.5 µM (inactive) | > 62.5 µM (inactive) | > 62.5 µM (inactive) | > 62.5 µM (inactive) | > 62.5 µM (inactive) | > 62.5 µM (inactive) | > 62.5 µM (inactive) | > 62.5 µM (inactive) | > 62.5 µM (inactive) | > 62.5 µM (inactive) | – | – |
| CCO/C=N\c1c(C#N)c(-c2ccc(Cl)cc2)cn1-c1ccc(C)cc1 | > 100 µM (inactive) | > 100 µM (inactive) | > 100 µM (inactive) | 0.0272 µM (active) | > 100 µM (inactive) | > 100 µM (inactive) | > 100 µM (inactive) | > 100 | > 100 µM (inactive) | > 100 µM (inactive) | > 100 µM (inactive) | – | > 100 µM (inactive) | > 100 µM (inactive) | > 100 µM (inactive) | > 100 µM (inactive) | > 100 µM (inactive) | > 100 µM (inactive) | > 100 µM (inactive) | – |
| CN1N(c2ccccc2)C(=O)C2=NC=C(C#N)C(=N)C21C (configuration not stated) | > 100 µM (inactive) | > 100 µM (inactive) | > 100 µM (inactive) | 19.8 µM (inactive) | > 100 µM (inactive) | > 100 µM (inactive) | > 100 µM (inactive) | > 100 | > 100 µM (inactive) | > 100 µM (inactive) | > 100 µM (inactive) | > 100 µM (inactive) | > 100 µM (inactive) | > 100 µM (inactive) | > 100 µM (inactive) | > 100 µM (inactive) | > 100 µM (inactive) | > 100 µM (inactive) | > 100 µM (inactive) | – |
| COC(=O)C(Cc1ccc(O)cc1)NC(=O)C(CC(=O)OCc1ccccc1)NC(=O)OCc1ccccc1 (configuration not stated) (Cbz-Asp(OBn)-Tyr-OMe; configuration not given here) | 23.8 µM (inactive) | 21.4 µM (inactive) | – | 22.8 µM (inactive) | – | 12.4 µM (inactive) | – | 18.3 | 18.2 µM (inactive) | 20.3 µM (inactive) | 22.4 µM (inactive) | 24.7 µM (inactive) | – | > 10 µM (inactive) | 51.1 µM (inactive) | 17.3 µM (inactive) | 19.4 µM (inactive) | 22.9 µM (inactive) | – | 19.5 µM (inactive) |
| FC(F)(F)c1ccc(C2=N/S(c3ccccc3)=N\C(c3ccc(C(F)(F)F)cc3)=N/S(c3ccccc3)=N\2)cc1 (configuration not stated) | > 100 µM (inactive) | – | > 100 µM (inactive) | > 100 µM (inactive) | > 100 µM (inactive) | > 100 µM (inactive) | > 100 µM (inactive) | > 100 | 80 µM (inactive) | > 100 µM (inactive) | > 100 µM (inactive) | > 100 µM (inactive) | > 100 µM (inactive) | > 100 µM (inactive) | > 100 µM (inactive) | > 100 µM (inactive) | > 100 µM (inactive) | > 100 µM (inactive) | > 100 µM (inactive) | – |
| COCC(C#N)NC1CC(OC2CC(O)(C(=O)CO)Cc3c(O)c4c(c(O)c32)C(=O)c2c(OC)cccc2C4=O)OC(C)C1O (configuration not stated) | 0.5 µM (active) | 0.0278 µM (active) | 0.0869 µM (active) | < 0.0111 µM (active) | 0.0388 µM (active) | < 0.01 µM (active) | 0.0292 µM (active) | 0.802 | 0.0434 µM (active) | 0.0286 µM (active) | 0.033 µM (active) | < 0.0137 µM (active) | 0.0412 µM (active) | < 0.01 µM (active) | 0.393 µM (active) | 0.0404 µM (active) | 0.0975 µM (active) | 0.442 µM (active) | 0.0415 µM (active) | – |
